Molecules are shown by their SMILES.

Data on 1 compound can be found in patent US8206901B2, “Method for the synthesis of a bifunctional complex” (Nuevolution A/S, priority 2002, dated 2012).

Assay [1] concerns the target T1, integrin αv/βIII receptor (Homo sapiens, UniProt P05106+P06756).
T1 construct: purchased Bachem
Description: Selection of 25-member split-and-mix library on immobilised integrin αVβ3, PCR, cloning and sequencing (Example 9). Type of assay: binding. To be noted: after selection; 18 successful sequences. As for the experimental part: Maxisorp ELISA wells (NUNC A/S, Denmark) were coated with each 100 μL 2 μg/mL integrin αVβ3 (Bachem) in PBS buffer [2.8 mM NaH2PO4, 7.2 mM Na2HPO4, 0.15 M NaCl, pH 7.2] overnight at 4° C. Then the integrin solution was substituted for 200 μl blocking buffer [TBS, 0.05% Tween 20 (Sigma P-9416), 1% bovine serum albumin (Sigma A-7030), 1 mM MnCl2] which was left on for 1 hour at room temperature. Then the wells were washed 2 times with 250 μl blocking buffer and 5 μl of the encoded library was added to the wells after diluting it 20 times with blocking buffer. Following 2 hours incubation at room temperature the wells were washed with 20×250 μl blocking buffer.
After the final wash the wells were cleared of wash buffer and subsequently inverted and exposed to UV light at 300-350 nm for 30 seconds using a trans-illuminator set at 70% power.
100 μl blocking buffer without Tween-20 was immediately added to each well, the wells were shaken for 30 seconds, and the solutions containing eluted templates were removed for PCR analysis. […]
Individual E. coli clones were picked and transferred to PCR wells containing 50 μl water. Colonies were incubated at 94° C. for 5 minutes and 20 μl was used in a 25 μl PCR reaction with 5 pmol of each TOPO primer M13 forward & M13 reverse (AH365/AH366) and Ready-To-Go PCR beads (Amersham) using PCR program EKO50: 94° C. […]

The next assay has as its target αv/βIII receptor (Homo sapiens, UniProt P05106+P06756). As to conditions: cited from earlier work.

αv/βIII receptor, sequence (P06756 31-889 limits assumed): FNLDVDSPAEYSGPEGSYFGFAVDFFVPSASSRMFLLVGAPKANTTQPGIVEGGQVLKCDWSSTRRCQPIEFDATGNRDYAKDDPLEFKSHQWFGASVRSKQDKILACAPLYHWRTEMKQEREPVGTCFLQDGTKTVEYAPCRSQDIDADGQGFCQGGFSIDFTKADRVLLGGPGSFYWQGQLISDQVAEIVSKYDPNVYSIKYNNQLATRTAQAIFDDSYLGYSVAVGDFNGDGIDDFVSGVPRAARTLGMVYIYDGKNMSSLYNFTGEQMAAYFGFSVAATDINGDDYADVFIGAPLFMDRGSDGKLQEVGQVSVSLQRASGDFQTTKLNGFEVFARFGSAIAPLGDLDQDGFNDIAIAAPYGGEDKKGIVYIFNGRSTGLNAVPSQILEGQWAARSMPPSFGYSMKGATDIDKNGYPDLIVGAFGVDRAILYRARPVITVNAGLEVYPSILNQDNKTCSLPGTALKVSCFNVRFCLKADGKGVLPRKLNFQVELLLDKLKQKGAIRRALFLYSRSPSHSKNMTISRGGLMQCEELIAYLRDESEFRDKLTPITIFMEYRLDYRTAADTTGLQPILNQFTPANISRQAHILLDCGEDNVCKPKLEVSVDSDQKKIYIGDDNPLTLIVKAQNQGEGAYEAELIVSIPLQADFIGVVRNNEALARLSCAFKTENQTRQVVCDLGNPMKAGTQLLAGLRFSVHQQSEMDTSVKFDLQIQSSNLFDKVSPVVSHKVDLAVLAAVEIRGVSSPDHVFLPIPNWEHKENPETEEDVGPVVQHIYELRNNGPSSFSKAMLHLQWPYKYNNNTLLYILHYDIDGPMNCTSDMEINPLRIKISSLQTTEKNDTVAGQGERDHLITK
αv/βIII receptor, sequence (P06756 891-1048 partner limits assumed): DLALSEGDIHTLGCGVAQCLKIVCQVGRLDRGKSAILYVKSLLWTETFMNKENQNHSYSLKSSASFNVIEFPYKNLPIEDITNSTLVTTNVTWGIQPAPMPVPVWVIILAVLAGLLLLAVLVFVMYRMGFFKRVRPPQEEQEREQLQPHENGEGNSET
αv/βIII receptor, sequence (P05106 27-788): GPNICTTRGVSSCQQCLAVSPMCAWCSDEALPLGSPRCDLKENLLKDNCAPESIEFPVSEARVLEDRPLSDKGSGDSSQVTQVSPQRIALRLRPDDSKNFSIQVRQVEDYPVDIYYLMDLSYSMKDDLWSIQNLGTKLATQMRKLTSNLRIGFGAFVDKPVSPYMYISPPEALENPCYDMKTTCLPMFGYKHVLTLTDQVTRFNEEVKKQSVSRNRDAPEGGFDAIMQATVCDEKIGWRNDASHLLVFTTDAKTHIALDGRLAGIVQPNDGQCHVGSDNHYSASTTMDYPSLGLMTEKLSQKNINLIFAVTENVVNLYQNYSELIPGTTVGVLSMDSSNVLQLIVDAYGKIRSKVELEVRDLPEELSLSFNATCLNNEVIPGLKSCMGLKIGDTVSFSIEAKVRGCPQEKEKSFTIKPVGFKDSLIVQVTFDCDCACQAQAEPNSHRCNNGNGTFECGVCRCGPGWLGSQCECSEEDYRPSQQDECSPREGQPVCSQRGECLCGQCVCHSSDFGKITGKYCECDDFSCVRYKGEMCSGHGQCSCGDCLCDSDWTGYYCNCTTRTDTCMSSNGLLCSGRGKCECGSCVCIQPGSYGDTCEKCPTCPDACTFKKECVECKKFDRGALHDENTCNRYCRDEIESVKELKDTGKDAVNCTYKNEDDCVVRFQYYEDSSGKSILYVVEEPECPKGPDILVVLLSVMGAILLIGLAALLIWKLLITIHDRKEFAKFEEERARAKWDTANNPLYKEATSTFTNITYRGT
T1 sequence (P06756 31-889 limits assumed): as the sequence (P06756 31-889 limits assumed) above
T1 sequence (P06756 891-1048 partner limits assumed): as the sequence (P06756 891-1048 partner limits assumed) above
T1 sequence (P05106 27-788): as the sequence (P05106 27-788) above

Take `O=C(O)CC(NC(=O)CNC(=O)CCCc1ccc2c(n1)NCCC2)C(=O)O` (stereo not drawn) [Feuston 5]: the “output sequences identifying the exact ligand” value in assay [1] is on record as 16 out of 18. Moreover, at αv/βIII receptor, the “affinity for αv/βIII compared to the RGD-tripeptide” value is on record as “ten-fold increased affinity”. In addition, on αv/βIII receptor (αv/βIII), the Kd (in general, the free concentration of one partner at which half of the binding sites on the other are occupied at equilibrium, for simple one-to-one binding) was 111 nM.
